Results reported in patent US9382261B2, “Substituted quinazolinones as HCV inhibitors” (Janssen R&D Ireland, priority 2011, dated 2016).

Legend:
[1] = system: HCV replicon type 1b in Huh-Luc cells; experiment: HCV replicon assay, stable transfection (Huh-7 luc/neo, luciferase readout); assay type: cell-based, HCV type 1b; conditions: Hepatitis C virus, Huh-7, 72 h, stably transfected Huh-Luc cells, genotype 1b, three days incubation, average if tested more than once, read-out: HCV-REP-HUH7LUC_EC50
From the text: The compounds of formula (I) were examined for inhibitory activity in the HCV replicon. This cellular assay is based on a bicistronic expression construct, as described by Lohmann et al. (Science (1999) 285: 110-113; Journal of Virology (2003) 77: 3007-3019) with modifications described by Krieger et al. (Journal of Virology (2001) 75: 4614-4624), and Lohmann et al. (Journal of Virology (2003) 77: 3007-3019) for genotype 1b and by Yi et al. (Journal of Virology (2004) 78: 7904-7915) for genotype 1a, in a multi-target screening strategy.
The method was as follows. The assay utilized the stably transfected cell line Huh-7 luc/neo (hereafter referred to as Huh-Luc). This cell line harbors an RNA encoding a bicistronic expression construct comprising the wild type NS3-NS5B regions of HCV type 1b translated from an Internal Ribosome Entry Site (IRES) from encephalomyocarditis virus (EMCV), preceded by a reporter portion (FfL-luciferase), and a selectable marker portion (neoR, neomycine phosphotransferase). The construct is flanked by 5′ and 3′ NTRs (non-translated regions) from HCV type 1b. Continued culture of the replicon cells in the presence of G418 (neoR) is dependent on the replication of the HCV RNA. The stably transfected replicon cells that replicate HCV RNA autonomously and to high levels, encoding inter alia luciferase, were used for screening the antiviral compounds.
The replicon cells were plated in 384 well plates in the presence of the test and control compounds which were added in various concentrations. Following an incubation of three days, HCV replication was measured by assaying luciferase activity (using standard luciferase assay substrates and reagents and a Perkin Elmer ViewLux™ ultraHTS microplate imager). Replicon cells in the control cultures have high luciferase expression in the absence of any inhibitor. The inhibitory activity of the compound was monitored on the Huh-Luc cells, enabling a dose-response curve for each test compound. EC50 values were then calculated, which represent the amount of compound required to decrease the level of detected luciferase activity by 50%, or more specifically, to reduce the ability of the genetically linked HCV replicon RNA to replicate.
Where a compound of formula (I) was tested more than once in the replicon assay, the average of all test results is given in this Table 1.

[2] = system: HCV subgenomic replicon genotype 1b Con1; experiment: HCV replicon assay, transient transfection, genotype 1b Con1 (Huh-7 lunet, luciferase readout); assay type: cell-based, HCV genotype 1b Con1; conditions: Hepatitis C virus, 48 h, Huh-7 lunet transiently transfected, genotype 1b Con1, two days incubation
From the text: (§1) In a transient set-up, a Huh-7 lunet hepatoma cell line was transiently transfected with an autonomously replicating RNA encoding a bi-cistronic expression construct. This construct comprises a firefly luciferase reporter gene preceding the NS3-NS5B subgenomic region of HCV (genotype 1a H77 or 1b Con1). Translation of the HCV subgenomic region is mediated by an internal ribosome entry site of encephalomyocarditis virus. The construct is furthermore flanked by 5′ and 3′ untranslated regions of HCV (genotype 1a H77 or 1b Con1, respectively), which allow for replication of the RNA.
(§2) Cells were plated in 384 well plates in the presence of test and control compounds, which were added in various concentrations. Following an incubation of two days, replication of the HCV subgenomic replicon RNA was measured by assaying luciferase activity (using standard luciferase assay substrates and reagents and a Perkin Elmer ViewLux™ ultraHTS microplate imager). HCV subgenomic replicon containing cells in the control cultures have high luciferase expression in the absence of any inhibitor. The inhibitory activity of the compound was monitored, enabling a dose-response curve for each test compound. EC50 values were then calculated, which represent the amount of compound required to decrease the level of detected luciferase activity by 50%, or more specifically, to reduce the ability of the genetically linked HCV subgenomic RNA to replicate.

[3] = system: HCV subgenomic replicon genotype 1a H77; experiment: HCV replicon assay, transient transfection, genotype 1a H77 (Huh-7 lunet, luciferase readout); assay type: cell-based, HCV genotype 1a H77; conditions: Hepatitis C virus, 48 h, Huh-7 lunet transiently transfected, genotype 1a H77, two days incubation
From the text: as §1, §2

[4] = Counterscreen MT4-LTR-Luc; assay type: cell-based; conditions: human; counterscreen cell line MT4-LTR-Luc
From the text: (§3) The in vitro antiviral activity against HCV of the compounds of formula I can be tested in a cellular HCV replicon system based on Lohmann et al. (1999) Science 285:110-113, with the further modifications described by Krieger et al. (2001) Journal of Virology 75: 4614-4624 and Lohmann et al. (2003) Journal of Virology 77: 3007-3019 for genotype 1b and by Yi et al. (2004) Journal of Virology 78: 7904-7915 for genotype 1a (incorporated herein by reference), which is further exemplified in the examples section. This model, while not a complete infection model for HCV, is widely accepted as the most robust and efficient model of autonomous HCV RNA replication currently available. It will be appreciated that it is important to distinguish between compounds that specifically interfere with HCV functions from those that exert cytotoxic or cytostatic effects in the HCV replicon model, and as a consequence cause a decrease in HCV RNA or linked reporter enzyme concentration. Assays are known in the field for the evaluation of cellular cytotoxicity based for example on the activity of mitochondrial enzymes using fluorogenic redox dyes such as resazurin. Furthermore, cellular counter screens exist for the evaluation of non-selective inhibition of linked reporter gene activity, such as firefly luciferase. Appropriate cell types can be equipped by stable transfection with a luciferase reporter gene whose expression is dependent on a constitutively active gene promoter, and such cells can be used as a counter-screen to eliminate non-selective inhibitors.
(§4) Counterscreen cell lines included a Huh-7 hepatoma cell line containing a human cytomegalovirus major immediate-early promoter-Luc construct (Huh7-CMV-Luc) and an MT4 T-cell line containing a long terminal repeat-Luc reporter (MT4-LTR-Luc).

[5] = Counterscreen Huh7-CMV-Luc; assay type: cell-based; conditions: human; counterscreen cell line Huh7-CMV-Luc
From the text: as §3, §4

Row | SMILES | EC50 [1] [nM] | EC50 [2] [nM] | EC50 [3] [nM] | CC50 [4] [nM] | CC50 [5] [nM]
1 | COC(=O)N[C@H](C(=O)N1[C@@H]2CC[C@@H](C2)[C@H]1c1nc2cc(-c3ccc4cc(-c5cnc([C@@H]6C[C@H]7C[C@H]7N6C(=O)[C@@H](NC(=O)OC)C(C)C)[nH]5)ccc4c3)ccc2c(=O)[nH]1)C(C)C [Compound 12] | 0.27 | 0.109 | 12.5 | > 980 | > 980
2 | COC(=O)N[C@H](C(=O)N1CCC[C@H]1c1nc2cc(-c3ccc4cc(-c5cnc([C@@H]6C[C@H]7C[C@H]7N6C(=O)[C@@H](NC(=O)OC)C(C)C)[nH]5)ccc4c3)ccc2c(=O)[nH]1)C(C)C [Compound 10] | 0.006 | 0.005 | 0.341 | > 980 | > 980
3 | COC(=O)N[C@H](C(=O)N1CCC[C@H]1c1ncc(-c2ccc3cc(-c4ccc5c(=O)[nH]c([C@@H]6C[C@@H]7CCCC[C@@H]7N6C(=O)[C@@H](NC(=O)OC)C(C)C)nc5c4)ccc3c2)[nH]1)C(C)C [Compound 15] | 0.006 | 0.007 | 0.496 | > 980 | > 980
4 | COC(=O)N[C@H](C(=O)N1CC2(C[C@H]1c1ncc(-c3ccc4cc(-c5ccc6c(=O)[nH]c([C@@H]7CCCN7C(=O)[C@@H](NC(=O)OC)C(C)C)nc6c5)ccc4c3)[nH]1)OCCO2)C(C)C [Compound 5] | 0.025 | 0.025 | 0.677 | > 980 | > 980
5 | COC(=O)N[C@H](C(=O)N1CC2(CC2)C[C@H]1c1ncc(-c2ccc3cc(-c4ccc5c(=O)[nH]c([C@@H]6C[C@@H]7CCCC[C@@H]7N6C(=O)[C@@H](NC(=O)OC)C(C)C)nc5c4)ccc3c2)[nH]1)C(C)C [Compound 13] | 0.006 | 0.009 | 0.36 | > 980 | > 980
6 | COC(=O)N[C@H](C(=O)N1CC2(C[C@H]1c1ncc(-c3ccc4cc(-c5ccc6c(=O)[nH]c([C@@H]7C[C@@H]8CCCC[C@@H]8N7C(=O)[C@@H](NC(=O)OC)C(C)C)nc6c5)ccc4c3)[nH]1)OCCO2)C(C)C [Compound 9] | 0.008 | 0.006 | 0.216 | > 980 | > 980
7 | COC(=O)N[C@H](C(=O)N1[C@@H]2C[C@@H]2C[C@H]1c1ncc(-c2ccc3cc(-c4ccc5c(=O)[nH]c([C@@H]6C[C@@H]7CCCC[C@@H]7N6C(=O)[C@@H](NC(=O)OC)C(C)C)nc5c4)ccc3c2)[nH]1)C(C)C [Compound 7] | 0.008 | 0.006 | 0.546 | > 980 | > 980
8 | COC(=O)N[C@H](C(=O)N1CC2(C[C@H]1c1ncc(-c3ccc4cc(-c5ccc6c(=O)[nH]c([C@@H]7C[C@H]8C[C@H]8N7C(=O)[C@@H](NC(=O)OC)C(C)C)nc6c5)ccc4c3)[nH]1)OCCO2)C(C)C [Compound 4] | 0.008 | 0.013 | 0.103 | > 980 | > 980
9 | COC(=O)N[C@H](C(=O)N1CC2(C[C@H]1c1ncc(-c3ccc4cc(-c5ccc6c(=O)[nH]c([C@@H]7CC8(CN7C(=O)[C@@H](NC(=O)OC)C(C)C)OCCO8)nc6c5)ccc4c3)[nH]1)OCCO2)C(C)C [Compound 2] | 0.018 | 0.033 | 1.4 | > 980 | > 980
10 | COC(=O)N[C@H](C(=O)N1[C@H](c2ncc(-c3ccc4cc(-c5ccc6c(=O)[nH]c([C@@H]7C[C@@H]8CCCC[C@@H]8N7C(=O)[C@@H](NC(=O)OC)C(C)C)nc6c5)ccc4c3)[nH]2)C[C@@H]2CCCC[C@@H]21)C(C)C [Compound 14] | 0.022 | 0.021 | 0.136 | > 980 | > 980
11 | COC(=O)N[C@H](C(=O)N1CC2(C[C@H]1c1nc3cc(-c4ccc5cc(-c6cnc([C@@H]7C[C@H]8C[C@H]8N7C(=O)[C@@H](NC(=O)OC)C(C)C)[nH]6)ccc5c4)ccc3c(=O)[nH]1)OCCCO2)C(C)C [Compound 1] | 0.026 | 0.029 | 0.79 | > 980 | > 980
12 | COC(=O)N[C@H](C(=O)N1[C@@H]2C[C@@H]2C[C@H]1c1ncc(-c2ccc3cc(-c4ccc5c(=O)[nH]c([C@@H]6C[C@H]7C[C@H]7N6C(=O)[C@@H](NC(=O)OC)C(C)C)nc5c4)ccc3c2)[nH]1)C(C)C [Compound 3] | 0.017 | 0.012 | 0.16 | > 980 | > 980
